≈ marks a conversion by molar mass, not a printed value.
How the values were obtained:
[1] = system: PSN-1 (a pancreatic adenocarcinoma cell line); assay: MTS cytotoxicity assay, single agents and combinations; assay type: cell-based; conditions: Homo sapiens, PSN1, PSN-1, chemotherapeutic agent alone; read-out: EC50 concentration
Experimental: (§1) An MTS reduction (MTS (3-(4,5-dimethylthiazol-2-yl)-5-(3-carboxymethoxyphenyl)-2-(4-sulfophenyl)-2H-tetrazolium) assay) was conducted to analyze the cytotoxic effect of sodium perborate tetrahydrate on lung, chordoma and pancreatic cells and normal cells. In this method, cell viability is determined via the activity of mitochondrial dehydrogenase enzyme, which reduces the tetrazolium dye MTS to its […] formazan (absorbance maximum of 490 nm in PBS).
(§2) Cells were counted and seeded in 96-well culture dishes. […] The positive control comprised 20% Dimethyl Sulfoxide and the negative control comprised complete growth media. Seeding densities were as follows: DMS114: 20.000 cells/well; MRC5: 5.000 cells/well; CH22: 2.000 cells/well; JHC7, UM-Chor1, MUG-Chor1, UCH1 and NPH: 5.000 cells/well; PSN1: 10.000 cells/well; BxPC3 and ASPC: 7.500 cells/well. The effect of sodium perborate tetrahydrate on cell viability was measured as follows. The cell culture medium was discarded and 100 μl of MTS solution (10% glucose solution and 1% MTS-PMS solution in PBS) was added into each well. After 1 hour incubation in a humidified incubator, an absorbance reading was taken to determine mitochondrial dehydrogenase activity and cell survival was calculated relative to the negative control.

[2] = system: DMS114 cells (small cell lung cancer cells); assay: MTS cytotoxicity assay; assay type: cell-based; conditions: DMS114
Experimental: as §1, §2

O=c1[nH]cc(F)c(=O)[nH]1 [5-Fluorouracil, reference compound] showed an EC50 [1] of 13 µM.
For OB(O)O [boric acid, reference compound], the EC50 ([2]; Homo sapiens, DMS-114, read-out: EC50 (dose that kills 50% of cells)) was 1000 µg/mL (≈ 16.2 mM).
With “sodium pentaborate pentahydrate [reference compound]” the “EC50 (dose that kills 50% of cells)” value [2] was 1,250 μg/mL.
